In patent publication US20230146455A1, “TREATMENT OF INFLAMMATORY DISEASES WITH PEPTIDES AND PHARMACEUTICAL COMPOSITIONS” (Yuyu Pharma, Inc., priority 2020, published 2023):
Values joined by “and” are separate entries in the source; they are usually repeats but may differ in a detail not shown here. Equal entries are not always repeated. Where a SMILES comes first, the peptide text is derived from it. [ ]: non-standard residue; d: D form. Hyp = O=C(O)[C@@H]1C[C@@H](O)CN1

What was measured:
CCL3/MIP-1 alpha = experiment: Example 9 Luminex, LPS hPBMCs: CCL3/MIP-1 alpha; assay type: cell-based, human
Description: (§1) Treatment Human PBMCs were pretreated with YY-101, YDE-011 and YDE-043 or reference compound; Xiidra® at various concentration (ranging from 1 nM to 100 uM) for 2 h before stimulation. An equal volume of 0.5% DMSO was used as a vehicle control. Then, the cells were treated with LPS at 5 ug/ml. The supernatants from treated cells were harvested at 24 h and placed in a 96 well for Luminex cytokine & chemokine profiling using a Luminex 200 multiplex assay (Luminex; R&D system, USA).
(§2) The main study arm with triplicate wells per group in a 24-well plate: • 1. Blank • 2. PBMC: 0.5% DMSO • 3. PBMC+LPS (5 ug/ml) • 4. PBMC+YY-101 100 uM • 5. PBMC+YY-101 10 uM • 6. PBMC+YY-101 1 uM • 7. PBMC+YY-101 0.1 uM • 8. PBMC+YY-101 0.01 uM • 9. PBMC+LPS (5 ug/ml)+Xiidra®100 uM • 10. PBMC+LPS (5 ug/ml)+Xiidra® 10 uM • 11. PBMC+LPS (5 ug/ml)+Xiidra® 1 uM • 12. PBMC+LPS (5 ug/ml)+Xiidra®0.1 uM • 13. PBMC+LPS (5 ug/ml)+Xiidra®0.01 uM • 14. PBMC+LPS (5 ug/ml)+Xiidra®0.001 uM • 15. PBMC+LPS (5 ug/ml)+YY-101 100 uM • 16. PBMC+LPS (5 ug/ml)+YY-101 10 uM • 17. PBMC+LPS (5 ug/ml)+YY-101 1 uM • 18. PBMC+LPS (5 ug/ml)+YY-101 0.1 uM • 19. PBMC+LPS (5 ug/ml)+YY-101 0.01 uM • 20. PBMC+LPS (5 ug/ml)+YY-101 0.001 uM • 21. PBMC+LPS (5 ug/ml)+YDE-011 100 uM • 22. PBMC+LPS (5 ug/ml)+YDE-011 10 uM • 23. PBMC+LPS (5 ug/ml)+YDE-011 1 uM • 24. PBMC+LPS (5 ug/ml)+YDE-011 0.1 uM • 25. PBMC+LPS (5 ug/ml)+YDE-011 0.01 uM • 26. PBMC+LPS (5 ug/ml)+YDE-011 0.001 uM • 27. PBMC+LPS (5 ug/ml)+YDE-043 100 uM • 28. PBMC+LPS (5 ug/ml)+YDE-043 10 uM • 29. PBMC+LPS (5 ug/ml)+YDE-043 1 uM • 30. PBMC+LPS (5 ug/ml)+YDE-043 0.1 uM • 31. PBMC+LPS (5 ug/ml)+YDE-043 0.01 uM • 32. PBMC+LPS (5 ug/ml)+YDE-043 0.001 uM
(§3) Multiplex assay was used to measure 30 cytokines and chemokines. The 1:2, 1:10 and 1:200 diluted cell supernatant and serial dilution of the standard were dispensed into a 96 well plate at 50 ul/well. Then, the pre-mixed cocktail of antibody-coated magnetic beads was dispensed at 50 ul/well and incubated at room temperature for 2 h in a horizontal orbital microplate shaker at 800±500 rpm. The beads were washed using a magnetic device to prevent loss. The biotin-antibody was dispensed in 50 ul of each well and incubated at room temperature for 1 h in a shaker at 800±500 rpm. After washing, streptavidin-PE was added at 50 ul/well and incubated at room temperature for 30 min in a shaker under the same conditions. Finally, after washing, wash buffer (100 ul/well) was added to the plate and incubated in a shaker for 2 min. The Luminex™ 200 setting were set according to the manufacturer's protocol. The data was calculated with a standard five-parameter logistic nonlinear regression analysis of the data (xPonent software 4.2, USA). The levels of cytokine/chemokine are normalized to the live cell counts (1×10^5 cells/mL) and presented as concentrations per mL (pg/mL or ng/mL).

IL-2 = experiment: Example 9 Luminex, LPS hPBMCs: IL-2; assay type: cell-based, human
Description: as §1, §2, §3

[1] = PBMC + LPS(5 ug/ml) + test article 0.001 uM, Mean
[2] = PBMC + LPS(5 ug/ml) + test article 0.001 uM, individual replicates
[3] = PBMC + LPS(5 ug/ml) + test article 0.01 uM, Mean
[4] = PBMC + LPS(5 ug/ml) + test article 0.01 uM, individual replicates
[5] = PBMC + LPS(5 ug/ml) + test article 0.1 uM, Mean
[6] = PBMC + LPS(5 ug/ml) + test article 0.1 uM, individual replicates
[7] = PBMC + LPS(5 ug/ml) + test article 1 uM, Mean
[8] = PBMC + LPS(5 ug/ml) + test article 1 uM, individual replicates
[9] = PBMC + LPS(5 ug/ml) + test article 10 uM, Mean
[10] = PBMC + LPS(5 ug/ml) + test article 10 uM, individual replicates
[11] = PBMC + LPS(5 ug/ml) + test article 100 uM, Mean
[12] = PBMC + LPS(5 ug/ml) + test article 100 uM, individual replicates
[13] = PBMC + LPS(5 ug/ml) + test article 0.001 uM, single replicates
[14] = PBMC + LPS(5 ug/ml) + test article 0.01 uM, single replicates
[15] = PBMC + LPS(5 ug/ml) + test article 0.1 uM, single replicates
[16] = PBMC + LPS(5 ug/ml) + test article 1 uM, single replicates
[17] = PBMC + LPS(5 ug/ml) + test article 10 uM, single replicates
[18] = PBMC + LPS(5 ug/ml) + test article 100 uM, single replicates

CC(C)C[C@H](NC(=O)[C@H](CCC(N)=O)NC(=O)CNC(=O)[C@@H]1C[C@@H](O)CN1)C(=O)NCC(=O)O [YDE-043] (H-[Hyp]GQLG-OH; N-terminus and C-terminus assumed)
Concentration (CCL3/MIP-1 alpha; [1]): 7935.0 pg/mL | conc/live cell (CCL3/MIP-1 alpha; [1]): 1611.4 pg/10^5 | Concentration (CCL3/MIP-1 alpha; [2]): 7637.9 pg/mL and 8204.6 pg/mL and 7962.5 pg/mL | conc/live cell (CCL3/MIP-1 alpha; [2]): 1735.9 pg/10^5 and 1367.4 pg/10^5 and 1731.0 pg/10^5 | Concentration (CCL3/MIP-1 alpha; [3]): 7883.4 pg/mL | conc/live cell (CCL3/MIP-1 alpha; [3]): 1505.4 pg/10^5 | Concentration (CCL3/MIP-1 alpha; [4]): 7796.2 pg/mL and 7985.9 pg/mL and 7868.0 pg/mL | conc/live cell (CCL3/MIP-1 alpha; [4]): 1732.5 pg/10^5 and 1210.0 pg/10^5 and 1573.6 pg/10^5 | Concentration (CCL3/MIP-1 alpha; [5]): 7645.0 pg/mL | conc/live cell (CCL3/MIP-1 alpha; [5]): 1418.9 pg/10^5 | Concentration (CCL3/MIP-1 alpha; [6]): 7513.4 pg/mL and 7625.5 pg/mL and 7796.2 pg/mL | conc/live cell (CCL3/MIP-1 alpha; [6]): 1502.7 pg/10^5 and 1361.7 pg/10^5 and 1392.2 pg/10^5 | Concentration (CCL3/MIP-1 alpha; [7]): 7636.6 pg/mL | conc/live cell (CCL3/MIP-1 alpha; [7]): 1442.9 pg/10^5 | Concentration (CCL3/MIP-1 alpha; [8]): 7962.5 pg/mL and 6891.7 pg/mL and 8055.7 pg/mL | conc/live cell (CCL3/MIP-1 alpha; [8]): 1372.8 pg/10^5 and 1435.8 pg/10^5 and 1520.0 pg/10^5 | Concentration (CCL3/MIP-1 alpha; [9]): 7606.3 pg/mL | conc/live cell (CCL3/MIP-1 alpha; [9]): 1409.0 pg/10^5 | Concentration (CCL3/MIP-1 alpha; [10]): 7500.8 pg/mL and 7450.2 pg/mL and 7868.0 pg/mL | conc/live cell (CCL3/MIP-1 alpha; [10]): 1442.5 pg/10^5 and 1379.7 pg/10^5 and 1405.0 pg/10^5 | Concentration (CCL3/MIP-1 alpha; [11]): 7769.2 pg/mL | conc/live cell (CCL3/MIP-1 alpha; [11]): 1234.0 pg/10^5 | Concentration (CCL3/MIP-1 alpha; [12]): 7962.5 pg/mL and 7575.9 pg/mL | conc/live cell (CCL3/MIP-1 alpha; [12]): 1284.3 pg/10^5 and 1183.7 pg/10^5 | IL-2 conc/live cell (IL-2; [1]): 0.0 pg/10^5 | MFI, Bead name: IL-2 (IL-2; [1]): 6.3 | IL-2 conc/live cell (IL-2; [13]): 0.0 pg/10^5 | MFI, Bead name: IL-2 (IL-2; [13]): 3.0 and 8.0 (2×) | IL-2 conc/live cell (IL-2; [3]): 0.0 pg/10^5 | MFI, Bead name: IL-2 (IL-2; [3]): 4.7 | IL-2 conc/live cell (IL-2; [14]): 0.0 pg/10^5 | MFI, Bead name: IL-2 (IL-2; [14]): 6.0 and 4.0 (2×) | IL-2 conc/live cell (IL-2; [5]): 0.0 pg/10^5 | MFI, Bead name: IL-2 (IL-2; [5]): 5.7 | IL-2 conc/live cell (IL-2; [15]): 0.0 pg/10^5 | MFI, Bead name: IL-2 (IL-2; [15]): 6.0 and 3.0 and 8.0 | IL-2 conc/live cell (IL-2; [7]): 0.0 pg/10^5 | MFI, Bead name: IL-2 (IL-2; [7]): 3.0 | IL-2 conc/live cell (IL-2; [16]): 0.0 pg/10^5 | MFI, Bead name: IL-2 (IL-2; [16]): 3.0 and 2.0 and 4.0 | IL-2 conc/live cell (IL-2; [9]): 0.0 pg/10^5 | MFI, Bead name: IL-2 (IL-2; [9]): 3.3 | IL-2 conc/live cell (IL-2; [17]): 0.0 pg/10^5 | MFI, Bead name: IL-2 (IL-2; [17]): 3.0 and 2.0 and 5.0 | IL-2 conc/live cell (IL-2; [11]): 0.0 pg/10^5 | MFI, Bead name: IL-2 (IL-2; [11]): 2.0 | IL-2 conc/live cell (IL-2; [18]): 0.0 pg/10^5 | MFI, Bead name: IL-2 (IL-2; [18]): 2.0
